# Data taken from US12091410B2, “Heterocyclic compound” (Takeda Pharmaceutical Company Limited, priority 2018, dated 2024).
# Molecular target: T1, human orexin type 2 receptor (Homo sapiens, UniProt O43614)
# T1 construct: expressed in transfected cells
# T1 sequence (O43614 1-444): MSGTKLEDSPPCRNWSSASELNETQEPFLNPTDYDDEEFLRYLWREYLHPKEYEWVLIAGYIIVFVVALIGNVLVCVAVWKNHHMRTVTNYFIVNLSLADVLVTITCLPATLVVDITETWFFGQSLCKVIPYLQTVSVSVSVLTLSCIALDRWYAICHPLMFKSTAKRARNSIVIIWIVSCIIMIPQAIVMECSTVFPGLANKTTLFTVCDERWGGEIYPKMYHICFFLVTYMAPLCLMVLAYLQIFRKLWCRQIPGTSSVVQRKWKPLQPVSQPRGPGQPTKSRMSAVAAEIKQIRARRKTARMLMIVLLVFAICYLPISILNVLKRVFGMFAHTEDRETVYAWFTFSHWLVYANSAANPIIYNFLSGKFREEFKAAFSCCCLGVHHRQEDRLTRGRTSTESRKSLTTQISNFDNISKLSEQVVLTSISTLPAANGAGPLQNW
# Assay: Measurement of orexin type 2 receptor agonist activity (calcium fluorescence, Fluo-4 AM, CHO cells forcibly expressing human OX2 receptor)
# Assay type: cell-based
# Details: test compound 3 μM, DMSO = 0%, orexin A (human) 10 nM = 100%
# Description: To obtain a cell clone stably expressing human orexin type 2 receptor, human orexin type 2 receptor cDNA was inserted into pcDNA3.1(+) plasmid vector (Invitrogen), and a plasmid DNA for expression of human orexin type 2 receptor (pcDNA3.1(+)/hOX2R) was cloned. The plasmid DNA was introduced into CHO-dhfr cell by an electroporation method, and human orexin type 2 receptor expressing clone cells were obtained by limiting dilution method by using G418 drug resistance as a selection marker.
# CHO cells forcibly expressing human OX2 receptor were seeded in each well of 384 well black transparent bottom plate (BD Falcon) at 7,500 cells/well, and cultured for one day in a 5% CO2 incubator at 37° C. After removal of the medium in the cell plate, assay buffer A containing a calcium indicator (HBSS (Thermo Fisher Scientific), 20 mM HEPES (Thermo Fisher Scientific), 0.1% BSA (Sigma-Aldrich), 2.5 μg/mL Fluo-4 AM (DOJINDO Chemical), 0.08% Pluronic F127 (DOJINDO Chemical), 1.25 mM probenecid (DOJINDO Chemical)) was added at 30 μL/well. The plate was stood for 30 min in a 5% CO2 incubator at 37° C., and further stood at room temperature for 30 min. A test compound prepared by diluting with assay buffer B (HBSS, 20 mM HEPES, 0.1% BSA) was added at 10 μL/well, and the fluorescence value was measured by FDSSpCELL (Hamamatsu Photonics K. K.) every one sec for 1 min, and thereafter every two sec for 1 min 40 sec. The activity (%) of the test compound was calculated assuming that variation in the fluorescence value when DMSO was added instead of the test compound was 0%, and variation in the fluorescence value when orexin A (human) (PEPTIDE INSTITUTE, INC.) was added at the final concentration of 10 nM was 100%.
row,"OX2R agonist activity (3 μM, %)",SMILES
1,101%,"CCc1cc2n(n1)[C@@H](COC1CCN(c3ncccn3)CC1)[C@@H](NS(=O)(=O)CC)CC2 (racemic) [Example 45, rac-N-[(6S,7R)-2-ethyl-7-({[1-(pyrimidin-2-yl)piperidin-4-yl]oxy}methyl)-4,5,6,7-tetrahydropyrazolo[1,5-a]pyridin-6-yl]ethanesulfonamide]"
2,98%,"CC(C)n1cc2c(n1)[C@@H](COC1CCN(c3ncccn3)CC1)[C@@H](NS(C)(=O)=O)CC2 (racemic) [Example 47, rac-N-[(6S,7S)-2-(propan-2-yl)-7-({[1-(pyrimidin-2-yl)piperidin-4-yl]oxy}methyl)-4,5,6,7-tetrahydro-2H-indazol-6-yl]methanesulfonamide]"
3,92%,"CC(O)c1nn2c(c1Cl)CCC(NS(C)(=O)=O)C2COC1CCN(c2ncccn2)CC1 (racemic) [Example 50, N-[(6SR,7RS)-3-chloro-2-(1-hydroxyethyl)-7-({[1-(pyrimidin-2-yl)piperidin-4-yl]oxy}methyl)-4,5,6,7-tetrahydropyrazolo[1,5-a]pyridin-6-yl]methanesulfonamide]"
4,95%,"CCc1nn2c(c1Br)CC[C@H](NS(C)(=O)=O)[C@@H]2COC1CCN(c2ncc(F)cn2)CC1 (racemic) [Example 52, rac-N-[(6S,7R)-3-bromo-2-ethyl-7-({[1-(5-fluoropyrimidin-2-yl)piperidin-4-yl]oxy}methyl)-4,5,6,7-tetrahydropyrazolo[1,5-a]pyridin-6-yl]methanesulfonamide]"
5,72%,"Cc1ccc2c(n1)[C@@H](Cc1cccc(-c3ccccc3)c1)[C@@H](NS(C)(=O)=O)CC2 (racemic) [Example 62, rac-N-{(7S,8S)-8-[([1,1′-biphenyl]-3-yl)methyl]-2-methyl-5,6,7,8-tetrahydroquinolin-7-yl}methanesulfonamide]"
6,100%,"CC(C)c1cc2n(n1)[C@@H](COC1CCN(c3ncccn3)CC1)[C@@H](NS(C)(=O)=O)CC2 (relative stereo) [Example 56, rel-N-[(6S,7R)-2-(propan-2-yl)-7-({[1-(pyrimidin-2-yl)piperidin-4-yl]oxy}methyl)-4,5,6,7-tetrahydropyrazolo[1,5-a]pyridin-6-yl]methanesulfonamide]"

# The next lines start with the molecule.
row,SMILES,"OX2R agonist activity (3 μM, %)"
1,"CCc1cc2n(n1)[C@@H](COC1CCN(c3ccccn3)CC1)[C@@H](NS(C)(=O)=O)CC2 (racemic) [Example 42, rac-N-[(6S,7R)-2-ethyl-7-({[1-(pyridin-2-yl)piperidin-4-yl]oxy}methyl)-4,5,6,7-tetrahydropyrazolo[1,5-a]pyridin-6-yl]methanesulfonamide]",80%
2,"CC(C)n1cc2c(n1)[C@@H](COC1CCN(c3ncc(F)cn3)CC1)[C@@H](NS(C)(=O)=O)CC2 (racemic) [Example 44, rac-N-[(6S,7S)-7-({[1-(5-fluoropyrimidin-2-yl)piperidin-4-yl]oxy}methyl)-2-(propan-2-yl)-4,5,6,7-tetrahydro-2H-indazol-6-yl]methanesulfonamide]",94%
3,"CC(C)c1cc2n(n1)[C@@H](COC1CCN(c3ncc(F)cn3)CC1)[C@@H](NS(C)(=O)=O)CC2 (relative stereo) [Example 24, rel-N-[(6S,7R)-7-({[1-(5-fluoropyrimidin-2-yl)piperidin-4-yl]oxy}methyl)-2-(propan-2-yl)-4,5,6,7-tetrahydropyrazolo[1,5-a]pyridin-6-yl]methanesulfonamide]",111%
4,"CCc1cc2n(n1)[C@@H](COC1CCN(c3ncc(F)cn3)CC1)[C@@H](NS(C)(=O)=O)CC2 (relative stereo) [Example 33, rel-N-[(6S,7R)-2-ethyl-7-({[1-(5-fluoropyrimidin-2-yl)piperidin-4-yl]oxy}methyl)-4,5,6,7-tetrahydropyrazolo[1,5-a]pyridin-6-yl]methanesulfonamide]",91%
